What follows are compounds tested against T1, human Fatty Acid Synthase (Homo sapiens, UniProt P49327) (assay: Human FAS enzyme assay (decrease in NADPH fluorescence)). Conditions: % inhibition at a concentration of 100 μmolar.
T1 construct: made in house
Type: biochemical
Outline: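 In-house human FAS was preincubated with compound and NADPH for 15 min at room temperature in 0.1 M Tris pH 7.5 with EDTA, glutathione and BSA. Malonyl CoA and acetyl CoA (500 μM and 150 μM in the added mix) were then added for 60 min. IC50 came from time-zero-subtracted NADPH fluorescence (340/460 nm).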

T1 sequence (P49327 whole entry): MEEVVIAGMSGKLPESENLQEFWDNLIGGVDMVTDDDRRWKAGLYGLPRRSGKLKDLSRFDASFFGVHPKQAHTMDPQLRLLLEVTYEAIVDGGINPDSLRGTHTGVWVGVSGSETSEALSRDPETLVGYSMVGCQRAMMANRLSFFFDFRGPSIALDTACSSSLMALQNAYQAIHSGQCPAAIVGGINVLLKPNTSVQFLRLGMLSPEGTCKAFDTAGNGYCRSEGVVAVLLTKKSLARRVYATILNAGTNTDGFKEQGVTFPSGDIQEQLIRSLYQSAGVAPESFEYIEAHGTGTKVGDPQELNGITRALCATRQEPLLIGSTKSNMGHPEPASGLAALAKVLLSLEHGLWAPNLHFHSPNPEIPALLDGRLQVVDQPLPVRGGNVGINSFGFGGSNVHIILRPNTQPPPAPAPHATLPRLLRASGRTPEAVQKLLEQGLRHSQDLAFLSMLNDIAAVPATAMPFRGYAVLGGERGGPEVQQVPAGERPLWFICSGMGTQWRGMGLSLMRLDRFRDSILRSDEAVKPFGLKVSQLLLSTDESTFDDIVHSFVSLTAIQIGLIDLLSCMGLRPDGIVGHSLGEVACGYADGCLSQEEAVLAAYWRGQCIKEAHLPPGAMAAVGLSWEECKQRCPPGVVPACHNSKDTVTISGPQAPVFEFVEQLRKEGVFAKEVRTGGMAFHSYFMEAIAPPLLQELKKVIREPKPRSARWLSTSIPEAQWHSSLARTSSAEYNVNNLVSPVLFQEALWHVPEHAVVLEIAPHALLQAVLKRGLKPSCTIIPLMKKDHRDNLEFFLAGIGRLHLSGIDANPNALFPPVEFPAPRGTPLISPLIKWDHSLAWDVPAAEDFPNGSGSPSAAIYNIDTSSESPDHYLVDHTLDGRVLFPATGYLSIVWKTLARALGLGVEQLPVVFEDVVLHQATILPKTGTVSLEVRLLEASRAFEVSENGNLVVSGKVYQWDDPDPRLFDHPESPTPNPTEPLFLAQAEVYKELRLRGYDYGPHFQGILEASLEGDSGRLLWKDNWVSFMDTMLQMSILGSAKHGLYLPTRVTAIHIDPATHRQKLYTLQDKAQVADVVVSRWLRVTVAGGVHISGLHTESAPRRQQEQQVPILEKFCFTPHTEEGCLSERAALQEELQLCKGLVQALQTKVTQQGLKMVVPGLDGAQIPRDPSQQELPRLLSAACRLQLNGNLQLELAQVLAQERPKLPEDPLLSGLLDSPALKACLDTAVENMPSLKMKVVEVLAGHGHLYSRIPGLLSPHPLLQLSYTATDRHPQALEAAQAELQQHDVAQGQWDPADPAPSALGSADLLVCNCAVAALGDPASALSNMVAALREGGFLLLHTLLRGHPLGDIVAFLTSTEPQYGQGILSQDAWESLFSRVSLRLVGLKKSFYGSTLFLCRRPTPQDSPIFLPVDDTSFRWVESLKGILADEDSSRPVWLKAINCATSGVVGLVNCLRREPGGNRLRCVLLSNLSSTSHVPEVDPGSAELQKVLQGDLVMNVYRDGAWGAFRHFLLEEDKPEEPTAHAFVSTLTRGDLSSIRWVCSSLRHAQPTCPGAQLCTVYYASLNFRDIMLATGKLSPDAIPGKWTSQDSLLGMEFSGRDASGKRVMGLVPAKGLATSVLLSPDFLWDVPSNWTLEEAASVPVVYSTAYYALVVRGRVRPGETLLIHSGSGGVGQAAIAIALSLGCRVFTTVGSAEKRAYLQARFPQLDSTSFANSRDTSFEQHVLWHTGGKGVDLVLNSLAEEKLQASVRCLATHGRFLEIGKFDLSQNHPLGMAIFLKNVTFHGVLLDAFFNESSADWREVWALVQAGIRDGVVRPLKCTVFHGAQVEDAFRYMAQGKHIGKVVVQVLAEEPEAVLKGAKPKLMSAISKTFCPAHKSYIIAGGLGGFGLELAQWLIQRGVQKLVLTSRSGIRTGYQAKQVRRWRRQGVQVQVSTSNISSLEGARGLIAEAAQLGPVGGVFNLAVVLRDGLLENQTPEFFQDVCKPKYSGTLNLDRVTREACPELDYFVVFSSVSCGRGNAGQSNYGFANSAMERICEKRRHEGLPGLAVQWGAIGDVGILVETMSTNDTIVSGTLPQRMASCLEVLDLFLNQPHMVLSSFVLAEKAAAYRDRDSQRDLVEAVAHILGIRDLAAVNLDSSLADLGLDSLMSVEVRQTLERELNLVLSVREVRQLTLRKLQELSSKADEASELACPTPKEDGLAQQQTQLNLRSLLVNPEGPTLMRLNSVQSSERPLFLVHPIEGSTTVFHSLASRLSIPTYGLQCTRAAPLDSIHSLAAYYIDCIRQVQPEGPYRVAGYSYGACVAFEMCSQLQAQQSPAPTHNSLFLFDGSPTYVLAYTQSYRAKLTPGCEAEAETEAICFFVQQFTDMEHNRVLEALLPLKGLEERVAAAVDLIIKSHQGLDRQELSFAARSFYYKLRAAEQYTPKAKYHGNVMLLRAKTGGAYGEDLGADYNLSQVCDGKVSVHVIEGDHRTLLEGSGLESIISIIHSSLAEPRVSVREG

Row | Structure (SMILES) | inhibition at 100 µM
1 | Cc1ccc(C(=O)N2CCC(c3ccc(C#N)cc3)CC2)cc1NC(=O)N[C@H]1CCN(S(C)(=O)=O)C1 [Example 221, 1-[5-[4-(4-cyanophenyl)piperidine-1-carbonyl]-2-methyl-phenyl]-3-[(3S)-1-methylsulfonylpyrrolidin-3-yl]urea] | 102%
2 | Cc1ccc(C(=O)N2CCC(c3ccc(C#N)cc3)CC2)cc1NC(=O)NCCCS(C)(=O)=O [Example 223, 1-[5-[4-(4-cyanophenyl)piperidine-1-carbonyl]-2-methyl-phenyl]-3-(3-methylsulfonylpropyl)urea] | 92.8%
3 | N#Cc1ccc(C2CCN(C(=O)c3cc(NC(=O)NCc4ccccc4)ccc3F)CC2)cc1 [Example 224, 1-benzyl-3-[3-[4-(4-cyanophenyl)piperidine-1-carbonyl]-4-fluoro-phenyl]urea] | 71.9%
4 | CCC(C)NC(=O)Nc1cc(C(=O)N2CCC(c3ccc(C#N)cc3)CC2)ccc1C (stereo not shown) [Example 226, 1-butan-2-yl-3-[5-[4-(4-cyanophenyl)piperidine-1-carbonyl]-2-methyl-phenyl]urea] | 84.2%
5 | CCCNC(=O)Nc1cc(C(=O)N2CCC(c3ccc(C#N)cc3)CC2)ccc1C [Example 227, 3-[5-[4-(4-cyanophenyl)piperidine-1-carbonyl]-2-methyl-phenyl]-1-propyl-urea] | 90.1%
6 | Cc1ccc(C(=O)N2CCC(c3ccc(C#N)cc3)CC2)cc1NC(=O)NC1CCCCC1 [Example 228, 1-[5-[4-(4-cyanophenyl)piperidine-1-carbonyl]-2-methyl-phenyl]-3-cyclohexyl-urea] | 82.1%
7 | Cc1ccc(C(=O)N2CCC(c3ccc(C#N)cc3)CC2)cc1NC(=O)NCCC(=O)NCCO [Example 230, 3-[[5-[4-(4-cyanophenyl)piperidine-1-carbonyl]-2-methyl-phenyl]carbamoylamino]-N-(2-hydroxyethyl)propanamide] | 94.3%
8 | CCCNC(=O)CCCNC(=O)Nc1cc(C(=O)N2CCC(c3ccc(C#N)cc3)CC2)ccc1C [Example 235, 4-[[5-[4-(4-cyanophenyl)piperidine-1-carbonyl]-2-methyl-phenyl]carbamoylamino]-N-propyl-butanamide] | 95.8%
9 | Cc1ccc(C(=O)N2CCC(c3ccc(C#N)cc3)CC2)cc1NC(=O)NCCC(=O)N(CCO)CCO [Example 242, 3-[[5-[4-(4-cyanophenyl)piperidine-1-carbonyl]-2-methyl-phenyl]carbamoylamino]-N,N-bis(2-hydroxyethyl)propanamide] | 90.6%
10 | Cc1ccc(C(=O)N2CCC(c3ccc(C#N)cc3)CC2)cc1NC(=O)NCc1ccc(S(C)(=O)=O)cc1 [Example 243, 1-[5-[4-(4-cyanophenyl)piperidine-1-carbonyl]-2-methyl-phenyl]-3-[(4-methylsulfonylphenyl)methyl]urea] | 99.9%
11 | Cc1cc(CNC(=O)Nc2cc(C(=O)N3CCC(c4ccc(C#N)cc4)CC3)ccc2C)on1 [Example 245, 1-[5-[4-(4-cyanophenyl)piperidine-1-carbonyl]-2-methyl-phenyl]-3-[(3-methyl-1,2-oxazol-5-yl)methyl]urea] | 94.3%
12 | Cc1ccc(C(=O)N2CCC(c3ccc(C#N)cc3)CC2)cc1NC(=O)NCc1cccc(S(C)(=O)=O)c1 [Example 247, 1-[5-[4-(4-cyanophenyl)piperidine-1-carbonyl]-2-methyl-phenyl]-3-[(3-methylsulfonylphenyl)methyl]urea] | 101%
13 | Cc1ccc(C(=O)N2CCC(c3ccc(C#N)cc3)CC2)cc1NC(=O)NCc1ncccc1C [Example 250, 3-[5-[4-(4-cyanophenyl)piperidine-1-carbonyl]-2-methyl-phenyl]-1-[(3-methylpyridin-2-yl)methyl]urea] | 104%
14 | COc1ncccc1-c1cc(CNC(=O)Nc2cc(C(=O)N3CCC(c4ccc(C#N)cc4)CC3)ccc2C)on1 [Example 251, 1-[5-[4-(4-cyanophenyl)piperidine-1-carbonyl]-2-methyl-phenyl]-3-[[3-(2-methoxypyridin-3-yl)-1,2-oxazol-5-yl]methyl]urea] | 88.4%
15 | COCCCCNC(=O)Nc1cc(C(=O)N2CCC(c3ccc(C#N)cc3)CC2)ccc1C [Example 252, 1-[5-[4-(4-cyanophenyl)piperidine-1-carbonyl]-2-methyl-phenyl]-3-(4-methoxybutyl)urea] | 99.4%
16 | Cc1ccc(C(=O)N2CCC(c3ccc(C#N)cc3)CC2)cc1NC(=O)NCCN1CCC(F)(F)C1 [Example 254, 1-[5-[4-(4-cyanophenyl)piperidine-1-carbonyl]-2-methyl-phenyl]-3-[2-(3,3-difluoropyrrolidin-1-yl)ethyl]urea] | 104%
17 | Cc1ccc(C(=O)N2CCC(c3ccc(C#N)cc3)CC2)cc1NC(=O)NC1CCC(N(C)C)CC1 (stereo not shown) [Example 256, 1-[5-[4-(4-cyanophenyl)piperidine-1-carbonyl]-2-methyl-phenyl]-3-(4-dimethylaminocyclohexyl)urea] | 98.7%
18 | Cc1ccc(C(=O)N2CCC(c3ccc(C#N)cc3)CC2)cc1NC(=O)NCc1cc(C)n(C)n1 [Example 257, 1-[5-[4-(4-cyanophenyl)piperidine-1-carbonyl]-2-methyl-phenyl]-3-[(1,5-dimethylpyrazol-3-yl)methyl]urea] | 86.2%

More lines, now with the values ahead:

Row | inhibition at 100 µM | Structure (SMILES)
19 | 96.7% | CCC(=O)N1CC[C@H](NC(=O)Nc2cc(C(=O)N3CCC(c4ccc(C#N)cc4)CC3)ccc2C)C1 [Example 220, 3-[5-[4-(4-cyanophenyl)piperidine-1-carbonyl]-2-methyl-phenyl]-1-[(3S)-1-propanoylpyrrolidin-3-yl]urea]
20 | 90.7% | CCS(=O)(=O)N1CC[C@H](NC(=O)Nc2cc(C(=O)N3CCC(c4ccc(C#N)cc4)CC3)ccc2C)C1 [Example 222, 3-[5-[4-(4-cyanophenyl)piperidine-1-carbonyl]-2-methyl-phenyl]-1-[(3S)-1-ethylsulfonylpyrrolidin-3-yl]urea]
21 | 89.9% | Cc1ccc(C(=O)N2CCC(c3ccc(C#N)cc3)CC2)cc1NC(=O)NC1CC1 [Example 225, 1-[5-[4-(4-cyanophenyl)piperidine-1-carbonyl]-2-methyl-phenyl]-3-cyclopropyl-urea]
22 | 88.7% | Cc1ccc(C(=O)N2CCC(c3ccc(C#N)cc3)CC2)cc1NC(=O)NC(C)C(C)C (stereo not shown) [Example 229, 1-[5-[4-(4-cyanophenyl)piperidine-1-carbonyl]-2-methyl-phenyl]-3-(3-methylbutan-2-yl)urea]
23 | 90.3% | Cc1ccc(C(=O)N2CCC(c3ccc(C#N)cc3)CC2)cc1NC(=O)NCCNC(=O)CC(=O)N(C)C [Example 231, N-[2-[[5-[4-(4-cyanophenyl)piperidine-1-carbonyl]-2-methyl-phenyl]carbamoylamino]ethyl]-N′,N′-dimethyl-propanediamide]
24 | 94.2% | CC(=O)NCC(C)NC(=O)Nc1cc(C(=O)N2CCC(c3ccc(C#N)cc3)CC2)ccc1C (stereo not shown) [Example 232, N-[2-[[5-[4-(4-cyanophenyl)piperidine-1-carbonyl]-2-methyl-phenyl]carbamoylamino]propyl]acetamide]
25 | 86.5% | Cc1ccc(C(=O)N2CCC(c3ccc(C#N)cc3)CC2)cc1NC(=O)NCCCNC(=O)N1CCOCC1 [Example 233, N-[3-[[5-[4-(4-cyanophenyl)piperidine-1-carbonyl]-2-methyl-phenyl]carbamoylamino]propyl]morpholine-4-carboxamide]
26 | 91.5% | Cc1ccc(C(=O)N2CCC(c3ccc(C#N)cc3)CC2)cc1NC(=O)NCCNC(N)=O [Example 234, 3-[2-(carbamoylamino)ethyl]-1-[5-[4-(4-cyanophenyl)piperidine-1-carbonyl]-2-methyl-phenyl]urea]
27 | 90.9% | COC(=O)CNC(=O)CNC(=O)Nc1cc(C(=O)N2CCC(c3ccc(C#N)cc3)CC2)ccc1C [Example 237, Methyl 2-[[2-[[5-[4-(4-cyanophenyl)piperidine-1-carbonyl]-2-methyl-phenyl]carbamoylamino]acetyl]amino]acetate]
28 | 89.9% | Cc1ccc(C(=O)N2CCC(c3ccc(C#N)cc3)CC2)cc1NC(=O)NCC(=O)N(C)C [Example 238, 2-[[5-[4-(4-cyanophenyl)piperidine-1-carbonyl]-2-methyl-phenyl]carbamoylamino]-N,N-dimethyl-acetamide]
29 | 99.3% | Cc1ccc(C(=O)N2CCC(c3ccc(C#N)cc3)CC2)cc1NC(=O)N[C@@H](CCS(C)(=O)=O)C(=O)O [Example 240, (2S)-2-[[5-[4-(4-cyanophenyl)piperidine-1-carbonyl]-2-methyl-phenyl]carbamoylamino]-4-methylsulfonyl-butanoic acid]
30 | 92.4% | Cc1ccc(C(=O)N2CCC(c3ccc(C#N)cc3)CC2)cc1NC(=O)NCCC(=O)Nc1cnoc1C [Example 241, 3-[[5-[4-(4-cyanophenyl)piperidine-1-carbonyl]-2-methyl-phenyl]carbamoylamino]-N-(5-methyl-1,2-oxazol-4-yl)propanamide]
31 | 96.2% | Cc1ccc(C(=O)N2CCC(c3ccc(C#N)cc3)CC2)cc1NC(=O)NCCCn1cccn1 [Example 244, 1-[5-[4-(4-cyanophenyl)piperidine-1-carbonyl]-2-methyl-phenyl]-3-(3-pyrazol-1-ylpropyl)urea]
32 | 105% | Cc1cc(CNC(=O)Nc2cc(C(=O)N3CCC(c4ccc(C#N)cc4)CC3)ccc2C)no1 [Example 246, 1-[5-[4-(4-cyanophenyl)piperidine-1-carbonyl]-2-methyl-phenyl]-3-[(5-methyl-1,2-oxazol-3-yl)methyl]urea]
33 | 100% | Cc1ccc(C(=O)N2CCC(c3ccc(C#N)cc3)CC2)cc1NC(=O)NCc1nccs1 [Example 248, 1-[5-[4-(4-cyanophenyl)piperidine-1-carbonyl]-2-methyl-phenyl]-3-(1,3-thiazol-2-ylmethyl)urea]
34 | 84.2% | Cc1cccc(CNC(=O)Nc2cc(C(=O)N3CCC(c4ccc(C#N)cc4)CC3)ccc2C)n1 [Example 249, 1-[5-[4-(4-cyanophenyl)piperidine-1-carbonyl]-2-methyl-phenyl]-3-[(6-methylpyridin-2-yl)methyl]urea]

Source: patent US20090118332A1, “Therapeutic Agents - 551” (AstraZeneca AB, priority 2006, published 2009)
